How the values were obtained:
[1] = system: androgen receptor; conditions: tested at high concentrations (10 µM); ref Sonneveld et al., (2005); cited from earlier work
[2] = system: androgen receptor; parameters: method as in Park et al., 2021; conditions: ref Park et al., 2021; cited from earlier work
[3] = system: androgen receptor; conditions: ref OECD, 2020b; cited from earlier work
[4] = system: androgen receptor; parameters: method as in Park et al., 2021; conditions: ref Park et al., 2021; cited from earlier work; remark: listed apart in the source
[5] = system: AR-CALUX cell line (U2-OS); assay: Cytotoxicity in the AR-CALUX assay (LDH leakage and visual inspection); assay type: cell-based, human; conditions: agonist assay
Procedure: Each test chemical was firstly tested at the highest soluble concentration, starting from 50 mg/ml. Subsequently, the test chemical was assessed with a prescreen run (dilution steps of 10) and simultaneously with the quantitative cytotoxicity test to determine (1) cytotoxic concentrations, (2) the response, and (3) the appropriate dose range to be tested. […] The cytotoxicity test was performed once more. Test chemicals were diluted in media and consisted of 8 serial dilutions. Each dilution was tested in triplicate.
Cytotoxicity was evaluated in both the agonist and antagonist assay and was carried out with the LDH test which can be performed in parallel to the agonist/antagonist assay and for which no extra plates have to be prepared. A drawback of this test is that the measurement will occur when leakage happens, ie, when the cell wall is degrading and thus the cell is dead. Early events in the onset of cell death cannot be measured with this test. For this reason, the AR-CALUX® method stated that the cytotoxicity of the exposed cells should also be assessed visually (microscopy).

[6] = system: androgen receptor; parameters: method as in Kleinstreuer et al., 2017; conditions: ref Kleinstreuer et al., 2017; cited from earlier work

Row | Structure (SMILES) | RTA in comparison to DHT [1] | 22Rv1/MMTV/GR-KO TA agonist result in words [2] | AR-EcoScreen agonist result in words [3] | 22Rv1/MMTV/GR-KO TA antagonist result in words [4] | highest nontoxic concentration [5] | AR-Reference list agonist result in words [6]
1 | CC(=O)[C@H]1CC[C@H]2[C@@H]3CCC4=CC(=O)CC[C@]4(C)[C@H]3CC[C@]12C [Progesterone] | 36% | positive |  |  |  | 
2 | C[C@]12CC[C@@H]3c4ccc(O)cc4CC[C@H]3[C@@H]1CC[C@@H]2O [17β-Estradiol] |  | AR agonist activity | AR agonist activity | AR antagonist response |  | 
3 | CC(=O)O[C@]1(C(C)=O)CC[C@H]2[C@@H]3C=C(Cl)C4=CC(=O)[C@@H]5C[C@@H]5[C@]4(C)[C@H]3CC[C@@]21C [Cyproterone acetate] |  |  |  |  | 3 µM | weak positive

From publication PMC8557474, “Reliability of the AR-CALUX®In Vitro Method Used to Detect Chemicals with (Anti)Androgen Activity: Results of an International Ring Trial” (Toxicological Sciences, 2021)
